Article PMC10689823, “Discovery of a Drug-like, Natural Product-Inspired DCAF11 Ligand Chemotype” (Nature Communications, 2023)

Target: BRD4S-TagBFP reporter (Homo sapiens, UniProt O60885)
Test: FACS-based CRISPR/Cas9 BRD4 protein stability screen
Conditions: Mageck_Gene level
Experimental: The virus containing supernatant was cleared of cellular debris by filtration through a 0.45-µm PES filter and used to transduce KBM7 BRD4-BFP reporter cells harboring a doxycycline inducible Cas9 allele at a multiplicity of infection (MOI) of 0.05 and 1,000-fold library representation. Library-transduced cells were selected with G418 (1 mg ml^−1, Gibco) for 14 days, expanded and Cas9 expression was induced with DOX (0.4 µg ml^−1, PanReac AppliChem).
Cells were washed with and stored in FACS buffer (PBS containing 5% FBS and 1 mM EDTA) at 4 °C overnight. The next day, cells were strained trough a 35 µm nylon mesh and sorted on a BD FACSAria™ Fusion (BD Biosciences) using a 85 µm nozzle. Aggregates, dead (ZombieNIR positive), Cas9-negative (GFP) and sgRNA library-negative (Thy1.1-APC) cells were excluded, and the remaining cells were sorted based on their BRD4-BFP and mCherry levels into BRD4^HIGH (10% of cells), BRD4^MID (30%) and BRD4^LOW (10%) fractions. For each sample, cells corresponding to at least 2,000-fold library representation were sorted per replicate.
Next-generation sequencing (NGS) libraries of sorted cell fractions were prepared as previously described[25]. In brief, genomic DNA was isolated by cell lysis (10 mM Tris-HCl, 150 mM NaCl, 10 mM EDTA, 0.1% SDS), proteinase K treatment (New England Biolabs) and DNAse-free RNAse digest (Thermo Fisher Scientific), followed by two rounds of phenol extraction and 2-propanol precipitation. Isolated genomic DNA was subjected to several freeze–thaw cycles before nested polymerase chain reaction (PCR) amplification of the sgRNA cassette.
Barcoded NGS libraries for each sorted population were generated using a two-step PCR protocol using AmpliTaq Gold (Invitrogen). The resulting PCR products were purified using Mag-Bind® TotalPure NGS beads (Omega Bio-tek) and amplified in a second PCR introducing the standard Illumina adapters. The final Illumina libraries were bead-purified, pooled and sequenced on a HiSeq 3500 platform (Illumina).
Screen analysis was performed as previously described[25]. Briefly, sequencing reads were quantified using the crispr-process-nf Nextflow workflow, available at https://github.com/ZuberLab/crispr-process-nf/tree/566f6d46bbcc2a3f49f51bbc96b9820f408ec4a3. For statistical analysis, we used the crispr-mageck-nf Nextflow workflow, available at https://github.com/ZuberLab/crispr-mageck-nf/tree/c75a90f670698bfa78bfd8be786d6e5d6d4fc455. To calculate gene-level enrichment, the sorted populations (BRD4^HIGH or BRD4^LOW) were compared to the BRD4^MID populations in MAGeCK (0.5.9)[46], using median normalized read counts.

## Cc1sc2c(c1C)C(c1ccc(Cl)cc1)=N[C@@H](CC(=O)NCCOCCOCCOCCOCCNC(=O)COc1c(Br)cc(/C=C3\C(=O)Nc4ccc(Br)cc43)cc1Br)c1nnc(C)n1-2 [Compound 9]
Gene DCAF1
  High_lfc: -0.04
  High_logP: 0.22
  Low_lfc: 0.71
  Low_logP: 1.93
Gene DCAF4
  High_lfc: -0.33
  High_logP: 0.01
  Low_lfc: -0.08
  Low_logP: 0.63
Gene DCAF5
  High_lfc: -0.12
  High_logP: 0.13
  Low_lfc: 0.4
  Low_logP: 1.39
Gene DCAF6
  High_lfc: 0.1
  High_logP: 0.11
  Low_lfc: 0.51
  Low_logP: 1.55
Gene DCAF7
  High_lfc: -0.09
  High_logP: 0.04
  Low_lfc: 0.11
  Low_logP: 0.24
Gene DCAF8
  High_lfc: -0.19
  High_logP: 0.14
  Low_lfc: 0.08
  Low_logP: 0.18
Gene DCAF12
  High_lfc: 0.07
  High_logP: 0.29
  Low_lfc: -0.16
  Low_logP: 0.06
Gene DCAF13
  High_lfc: -0.33
  High_logP: 0.07
  Low_lfc: -0.3
  Low_logP: 0.33
Gene DCAF15
  High_lfc: -0.01
  High_logP: 0.12
  Low_lfc: 0.32
  Low_logP: 0.83
Gene DCAF16
  High_lfc: 0.71
  High_logP: 2.61
  Low_lfc: -0.66
  Low_logP: 0.04
Gene DCAF17
  High_lfc: 0.07
  High_logP: 0.17
  Low_lfc: -0.16
  Low_logP: 0.07
Gene DCUN1D1
  High_lfc: 0.27
  High_logP: 1.62
  Low_lfc: -0.11
  Low_logP: 0.82
Gene DCUN1D2
  High_lfc: -0.24
  High_logP: 0
  Low_lfc: 0.46
  Low_logP: 1.57
Gene DCUN1D3
  High_lfc: 0.07
  High_logP: 0.22
  Low_lfc: 0.29
  Low_logP: 0.82
Gene DCUN1D4
  High_lfc: -0.09
  High_logP: 0.04
  Low_lfc: -0.2
  Low_logP: 0.05
Gene DCUN1D5
  High_lfc: 0.69
  High_logP: 2.79
  Low_lfc: -0.49
  Low_logP: 0
Gene DDA1
  High_lfc: 0.43
  High_logP: 1.02
  Low_lfc: -0.23
  Low_logP: 0.16
Gene DDB1
  High_lfc: 2.03
  Low_lfc: 0.4
  Low_logP: 0.83
Gene DDB2
  High_lfc: 0.02
  High_logP: 0.06
  Low_lfc: 0.07
  Low_logP: 0.53
Gene DET1
  High_lfc: -0.36
  High_logP: 0.06
  Low_lfc: -0.27
  Low_logP: 0.06
Gene DHX15
  High_lfc: 0.66
  Low_lfc: 0.13
  Low_logP: 0.31
Gene DTL
  High_lfc: -0.25
  High_logP: 0.1
  Low_lfc: 0.46
  Low_logP: 1.87
Gene ECT2L
  High_lfc: -0.03
  High_logP: 0.31
  Low_lfc: -0.31
  Low_logP: 0.2
Gene EED
  High_lfc: 0.01
  High_logP: 0.06
  Low_lfc: -0.55
  Low_logP: 0.01
Gene EIF4A1
  High_lfc: -0.26
  High_logP: 0.15
  Low_lfc: -0.34
  Low_logP: 0.04
Gene EIF4A3
  High_lfc: -0.3
  High_logP: 0.1
  Low_lfc: 0.62
  Low_logP: 1.82
Gene ELOA2
  High_lfc: 0.02
  High_logP: 0.19
  Low_lfc: -0.02
  Low_logP: 0.17
Gene ELOA3
  High_lfc: -0.12
  High_logP: 0.33
  Low_lfc: -0.41
  Low_logP: 0.06
Gene ELOA3D
  High_lfc: -0.34
  High_logP: 0.11
  Low_lfc: -0.14
  Low_logP: 0.69
Gene ELOA
  High_lfc: -0.54
  High_logP: 0
  Low_lfc: 0.05
  Low_logP: 0.65
Gene ELOB
  High_lfc: -0.05
  High_logP: 0.33
  Low_lfc: 0.22
  Low_logP: 0.4
Gene ELOC
  High_lfc: -0.21
  High_logP: 0.17
  Low_lfc: 0.63
  Low_logP: 1.29
Gene ENC1
  High_lfc: -0.27
  High_logP: 0.19
  Low_lfc: -0.31
  Low_logP: 0.09
Gene EPHA4
  High_lfc: 0.01
  High_logP: 0.19
  Low_lfc: -0.17
  Low_logP: 0.06
Gene ERCC8
  High_lfc: -0.19
  High_logP: 0.27
  Low_lfc: -0.63
  Low_logP: 0.01
Gene ESCO1
  High_lfc: 0.1
  High_logP: 0.14
  Low_lfc: -0.14
  Low_logP: 0.11
Gene FAM9A
  High_lfc: -0.28
  High_logP: 0.03
  Low_lfc: -0.03
  Low_logP: 0.66
Gene FBXL2
  High_lfc: -0.01
  High_logP: 0.32
  Low_lfc: -0.67
  Low_logP: 0.02
Gene FBXL3
  High_lfc: 0.05
  High_logP: 0.1
  Low_lfc: 0.28
  Low_logP: 0.58
Gene FBXL4
  High_lfc: -0.08
  High_logP: 0.06
  Low_lfc: 0.06
  Low_logP: 0.49
Gene FBXL5
  High_lfc: 0.03
  High_logP: 0.04
  Low_lfc: 0.05
  Low_logP: 0.32
Gene FBXL6
  High_lfc: 0.08
  High_logP: 0.54
  Low_lfc: 0.07
  Low_logP: 0.24
Gene FBXL7
  High_lfc: -0.35
  High_logP: 0.03
  Low_lfc: -0.35
  Low_logP: 0.01
Gene FBXL8
  High_lfc: -0.11
  High_logP: 0.39
  Low_lfc: 0.2
  Low_logP: 0.54
Gene FBXL12
  High_lfc: 0.01
  High_logP: 0.22
  Low_lfc: 0.06
  Low_logP: 0.38
Gene FBXL13
  High_lfc: -0.18
  High_logP: 0.02
  Low_lfc: -0.03
  Low_logP: 0.46
Gene FBXL14
  High_lfc: -0.12
  High_logP: 0.22
  Low_lfc: 0.15
  Low_logP: 0.61
Gene FBXL15
  High_lfc: 0.41
  High_logP: 0.56
  Low_lfc: 0.18
  Low_logP: 0.28
Gene FBXL16
  High_lfc: 0.12
  High_logP: 0.12
  Low_lfc: -0.11
  Low_logP: 0.07
Gene FBXL17
  High_lfc: 0.03
  High_logP: 0.74
  Low_lfc: -0.02
  Low_logP: 0.44
Gene FBXL18
  High_lfc: 0.28
  High_logP: 1.09
